Measurements: PubChem BioAssay (NCI)
Where “and” joins values, the source holds several entries; their conditions need not be identical. Equal values may be shown once.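 A five-concentration, 48-hour dose response in 96-well plates underlies each endpoint, interpolated linearly between surrounding concentrations. The concentration for 50% growth inhibition is given as GI50. The concentration for full growth arrest is given as TGI.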

Tests used:
Assay in all cases: NCI-60 cell line screen, 48 h
LOX IMVI melanoma = tested on: LOX IMVI melanoma
MALME-3M melanoma = tested on: MALME-3M melanoma
CAKI-1 renal = tested on: CAKI-1 renal
OVCAR-4 ovarian = tested on: OVCAR-4 ovarian
UO-31 renal = tested on: UO-31 renal
OVCAR-8 ovarian = tested on: OVCAR-8 ovarian
SF-539 CNS = tested on: SF-539 CNS
SF-295 CNS = tested on: SF-295 CNS
786-0 renal = tested on: 786-0 renal
SK-MEL-28 melanoma = tested on: SK-MEL-28 melanoma

SMILES | GI50 (LOX IMVI melanoma) | TGI (LOX IMVI melanoma) | GI50 (MALME-3M melanoma) | TGI (MALME-3M melanoma) | GI50 (CAKI-1 renal) | TGI (CAKI-1 renal) | GI50 (OVCAR-4 ovarian) | TGI (OVCAR-4 ovarian) | GI50 (UO-31 renal) | TGI (UO-31 renal) | GI50 (OVCAR-8 ovarian) | TGI (OVCAR-8 ovarian) | GI50 (SF-539 CNS) | TGI (SF-539 CNS) | GI50 (SF-295 CNS) | TGI (SF-295 CNS) | GI50 (786-0 renal) | TGI (786-0 renal) | GI50 (SK-MEL-28 melanoma) | TGI (SK-MEL-28 melanoma)
O=c1c(Oc2ccc(F)cc2F)cc2cnc(NC3CCOCC3)nc2n1C1CC1 | > 25 µM | > 25 µM | > 25 µM | > 25 µM | > 25 µM | > 25 µM | > 25 µM | > 25 µM | 2210 nM | 10.2 µM | > 25 µM | > 25 µM | > 25000 nM | > 25 µM | > 25000 nM | > 25 µM | > 25 µM | > 25 µM | > 25 µM | > 25 µM
CCCCCCCCCCCCOC1C(C(COC2OC(C(O)CO)C3OC(C)(C)OC23)OC(=O)Nc2ccccc2)OC2OC(C)(C)OC21 (stereo not given) | 7.82 µM | 20.9 µM | 9.2 µM | 23.2 µM | 12 µM | 25.9 µM | 5.85 µM | 17.8 µM | 9010 nM | 23.7 µM | 8.24 µM | 26.2 µM | 9140 nM | 22.3 µM | 5470 nM | 17.7 µM | 5.84 µM | 17.2 µM | 7.24 µM | 19.3 µM
CCCCCNC(=O)CCCCCCCCCCCNC(=O)CCCCCCCCCCN1C=CC(=CC=C2C=CC(=O)C=C2)C=C1 | – | > 100 µM | – | > 100 µM | – | > 100 µM | – | > 100 µM | – | > 100 µM | – | > 100 µM | – | > 100 µM | – | > 100 µM | – | > 100 µM | – | > 100 µM
COc1nc(N)nc2nc[nH]c12 | 677 µM and 489 µM | 500 µM and 800 µM and > 1000 µM | > 800 µM and 665 µM | 356 µM and > 800 µM and > 1000 µM | 188 µM and 295 µM | 410 µM and 522 µM and 730 µM | > 800 µM and 982 µM | 500 µM and > 800 µM and > 1000 µM | 161000 nM and 299000 nM | 485 µM and 579 µM and > 1000 µM | > 800 µM and 579 µM | > 800 µM | > 800000 nM | 500 µM and > 800 µM and > 1000 µM | > 881000 nM | > 1000 µM | 639 µM and 214 µM | 500 µM and 800 µM and > 418 µM | > 1000 µM | > 1000 µM
O=C1NC(c2ccccc2Cl)Nc2ccccc21 (stereo not given) | – | > 100 µM | – | > 100 µM | – | 91.8 µM | – | > 100 µM | – | > 100 µM | – | > 100 µM | – | 32.6 µM | – | > 72.3 µM | – | > 100 µM | – | > 100 µM
C/C(=C\c1csc(C)n1)[C@@H]1C[C@@H]2O[C@]2(C)CCC[C@H](C)[C@H](O)[C@@H](C)C(=O)C(C)(C)[C@@H](O)CC(=O)N1 | 0.00012 µM | 0.000226 µM | 0.000376 µM | 0.000603 µM | 0.0137 µM | 0.0434 µM | 0.000318 µM | 0.000821 µM | 0.126 nM | 0.000177 µM | 0.000112 µM | 0.000184 µM | 0.165 nM | 0.000369 µM | 0.156 nM | 0.000423 µM | 0.000182 µM | 0.000356 µM | 0.000219 µM | 0.000436 µM
COc1cc2c(cc1C)NC(=O)/C2=C\c1ccc(Oc2ccccc2)cc1 | 14 µM | 27 µM | 20.1 µM | 41.1 µM | 17 µM | 33 µM | 16.4 µM | 29.9 µM | 14800 nM | 30.9 µM | 22.8 µM | 64.6 µM | 17900 nM | 32.7 µM | 17000 nM | 36.8 µM | 12 µM | 24.8 µM | 15.7 µM | 29.5 µM
O=C1NC(=NCc2cccs2)O/C1=C\c1ccc2ncccc2c1 | 5.87 µM | 19.4 µM | 4.85 µM | 15.3 µM | 3.86 µM | 12.3 µM | 4.5 µM | > 20.3 µM | 4990 nM | 14.1 µM | 4.27 µM | 16.6 µM | 2870 nM | 8.59 µM | 5030 nM | 15.9 µM | 6.21 µM | > 20.3 µM | 5.87 µM | 18 µM
OCc1ccc(N2CCc3ccc(F)cc3C2)cc1Cl | 3.73 µM | 12.3 µM | 12.1 µM | 26.9 µM | 1.01 µM | 9.62 µM | 0.0799 µM | 0.772 µM | 1520 nM | 17.3 µM | 7.05 µM | 20.7 µM | 15900 nM | 31 µM | 72.8 nM | 1.96 µM | 3.11 µM | 23.8 µM | 13.1 µM | 26.1 µM
N#C[Se]CCN1C(=O)c2ccccc2C1=O | 1.8 µM | 4.15 µM | 1.82 µM | 13.4 µM | 2.94 µM | 8.62 µM | 4.17 µM | 23.9 µM | 2090 nM | 7.92 µM | 2.66 µM | 8.26 µM | 1920 nM | 6.85 µM | 1650 nM | 3.7 µM | 2.1 µM | 5.09 µM | 1.8 µM | 4.99 µM
Cc1ccc(-c2nc([P+](c3ccccc3)(c3ccccc3)c3ccccc3)c(N3CCOCC3)o2)cc1 | 0.565 µM | 2.44 µM | 0.378 µM | 3.11 µM | 5.58 µM | 17.1 µM | 0.281 µM | 3.03 µM | 2230 nM | 7.3 µM | 0.505 µM | 9.5 µM | 787 nM | 10.1 µM | 1120 nM | 4.35 µM | 2.54 µM | 12.7 µM | 0.515 µM | 9.18 µM
COc1cc2c(Oc3ccc(-c4cnc(Nc5ccc(F)cc5)n(C)c4=O)cc3F)ccnc2cc1OCCCN1CCOCC1 | 1.23 µM | 2.55 µM | 0.291 µM | 1.41 µM | 1.05 µM | 2.46 µM | 1.74 µM | 7.49 µM | 906 nM | 2.21 µM | 1.87 µM | 4.72 µM | 464 nM | 1.62 µM | 663 nM | 1.99 µM | 1.54 µM | 3.1 µM | 0.97 µM | 2.28 µM
